Measurements taken from ChEMBL document CHEMBL3779859, “Synergistic activity of a short lipidated antimicrobial peptide (lipoAMP) and colistin or tobramycin against Pseudomonas aeruginosa from cystic fibrosis patients” (Medchemcomm, 2016).
Values after ≈ are worked out from the molar mass of the structure shown. Active and inactive are the calls of the source. No cut-off for these calls is given here. Peptide text beside a SMILES is read from it. * marks the point of attachment. Myristoyl = CCCCCCCCCCCCCC(=O)*; Lauroyl = CCCCCCCCCCCC(=O)*; Octanoyl = CCCCCCCC(=O)*

Assays:
[1] = test system: Pseudomonas aeruginosa; assay: Antibacterial activity against Pseudomonas aeruginosa VW1633 clinical isolate after 16 to 20 hrs by microdilution assay; type: functional
[2] = test system: Pseudomonas aeruginosa; assay: Antibacterial activity against Pseudomonas aeruginosa KD491 clinical isolate after 16 to 20 hrs by microdilution assay; type: functional
[3] = test system: Pseudomonas aeruginosa; assay: Antibacterial activity against Pseudomonas aeruginosa LES431 clinical isolate after 16 to 20 hrs by microdilution assay; type: functional
[4] = test system: Pseudomonas aeruginosa; assay: Antibacterial activity against Pseudomonas aeruginosa VW313 clinical isolate after 16 to 20 hrs by microdilution assay; type: functional
[5] = test system: Pseudomonas aeruginosa; assay: Antibacterial activity against Pseudomonas aeruginosa VW1540 clinical isolate after 16 to 20 hrs by microdilution assay; type: functional
[6] = test system: Pseudomonas aeruginosa; assay: Antibacterial activity against Pseudomonas aeruginosa VW178 clinical isolate after 16 to 20 hrs by microdilution assay; type: functional
[7] = test system: Pseudomonas aeruginosa; assay: Antibacterial activity against Pseudomonas aeruginosa kl 1.1 clinical isolate after 16 to 20 hrs by microdilution assay; type: functional
[8] = test system: Pseudomonas aeruginosa; assay: Antibacterial activity against Pseudomonas aeruginosa VW1538 clinical isolate after 16 to 20 hrs by microdilution assay; type: functional
[9] = test system: Pseudomonas aeruginosa; assay: Antibacterial activity against Pseudomonas aeruginosa D599 clinical isolate after 16 to 20 hrs by microdilution assay; type: functional
[10] = test system: Pseudomonas aeruginosa; assay: Antibacterial activity against Pseudomonas aeruginosa VW1485 clinical isolate after 16 to 20 hrs by microdilution assay; type: functional
[11] = test system: Pseudomonas aeruginosa; assay: Antibacterial activity against Pseudomonas aeruginosa VW1471 clinical isolate after 16 to 20 hrs by microdilution assay; type: functional
[12] = test system: Pseudomonas aeruginosa; assay: Antibacterial activity against Pseudomonas aeruginosa Clone C clinical isolate after 16 to 20 hrs by microdilution assay; type: functional
[13] = test system: Pseudomonas aeruginosa; assay: Antibacterial activity against Pseudomonas aeruginosa VW1501 clinical isolate after 16 to 20 hrs by microdilution assay; type: functional
[14] = test system: Pseudomonas aeruginosa; assay: Antibacterial activity against Pseudomonas aeruginosa VW0247 clinical isolate after 16 to 20 hrs by microdilution assay; type: functional
[15] = test system: Pseudomonas aeruginosa; assay: Antibacterial activity against Pseudomonas aeruginosa LESB58 clinical isolate after 16 to 20 hrs by microdilution assay; type: functional
[16] = test system: Pseudomonas aeruginosa; assay: Antibacterial activity against Pseudomonas aeruginosa KD557 clinical isolate after 16 to 20 hrs by microdilution assay; type: functional
[17] = test system: Pseudomonas aeruginosa; assay: Antibacterial activity against Pseudomonas aeruginosa LES400 clinical isolate after 16 to 20 hrs by microdilution assay; type: functional
[18] = test system: Pseudomonas aeruginosa; assay: Antibacterial activity against Pseudomonas aeruginosa MIDLANDS clinical isolate after 16 to 20 hrs by microdilution assay; type: functional
[19] = test system: Pseudomonas aeruginosa; assay: Antibacterial activity against Pseudomonas aeruginosa PAO1 clinical isolate after 16 to 20 hrs by microdilution assay; type: functional
[20] = test system: Pseudomonas aeruginosa; assay: Antibacterial activity against Pseudomonas aeruginosa kl 3.2 clinical isolate after 16 to 20 hrs by microdilution assay; type: functional
[21] = test system: Pseudomonas aeruginosa; assay: Antibacterial activity against Pseudomonas aeruginosa PAO1 clinical isolate assessed as delay in growth rate in exponential phase of bacterial growth curve at 0.25 ug/ml measured every 15 mins by microtiter plate reader method; type: functional, organism-based
[22] = test system: Pseudomonas aeruginosa; assay: Antibacterial activity against Pseudomonas aeruginosa LESB58 clinical isolate assessed as delay in growth rate in exponential phase of bacterial growth curve at 1 ug/ml measured every 15 mins by microtiter plate reader method; type: functional, organism-based
[23] = test system: Pseudomonas aeruginosa; assay: Antibacterial activity against Pseudomonas aeruginosa KD491 clinical isolate assessed as delay in growth rate in exponential phase of bacterial growth curve at 1 ug/ml measured every 15 mins by microtiter plate reader method; type: functional, organism-based
[24] = test system: Pseudomonas aeruginosa; assay: Antibacterial activity against Pseudomonas aeruginosa Clone C clinical isolate assessed as delay in growth rate in exponential phase of bacterial growth curve at 0.25 ug/ml measured every 15 mins by microtiter plate reader method; type: functional, organism-based
[25] = test system: Pseudomonas aeruginosa; assay: Antibacterial activity against Pseudomonas aeruginosa LESB58 clinical isolate assessed as prolongation of lag phase in bacterial growth curve at 2 ug/ml measured every 15 mins by microtiter plate reader method; type: functional, organism-based
[26] = test system: Pseudomonas aeruginosa; assay: Antibacterial activity against Pseudomonas aeruginosa KD491 clinical isolate assessed as prolongation time of lag phase in bacterial growth curve at 0.25 ug/ml measured every 15 mins by microtiter plate reader method; type: functional, organism-based
[27] = test system: Pseudomonas aeruginosa; assay: Antibacterial activity against Pseudomonas aeruginosa LESB58 clinical isolate assessed as growth rate in exponential phase at 2 ug/ml measured every 15 mins by microtiter plate reader method; type: functional, organism-based
[28] = test system: Pseudomonas aeruginosa; assay: Antibacterial activity against Pseudomonas aeruginosa KD491 clinical isolate assessed as growth rate in exponential phase at 0.25 ug/ml measured every 15 mins by microtiter plate reader method; type: functional, organism-based
[29] = test system: Pseudomonas aeruginosa; assay: Antibacterial activity against Pseudomonas aeruginosa PAO1 clinical isolate assessed as inhibition of biofilm formation at 2 ug/ml after 18 to 22 hrs by crystal violet staining-based polystyrene microtiter plate reader method; type: functional, organism-based
[30] = test system: Pseudomonas aeruginosa; assay: Antibacterial activity against Pseudomonas aeruginosa Clone C clinical isolate assessed as inhibition of biofilm formation at 2 ug/ml after 18 to 22 hrs by crystal violet staining-based polystyrene microtiter plate reader method; type: functional, organism-based

Compound: CCCCCCCCCCCC(=O)N[C@@H](CCCNC(=N)N)C(=O)N[C@@H](Cc1c[nH]c2ccccc12)C(=O)N[C@@H](CCCNC(=N)N)C(=O)N[C@@H](Cc1c[nH]c2ccccc12)C(=O)N[C@@H](CCCNC(=N)N)C(=O)N[C@@H](Cc1c[nH]c2ccccc12)C(=O)N[C@@H](CCCCN)C(=O)O (Lauroyl-RWRWRWK-OH)
- MIC [1]: > 128 µg/mL
- MIC [2]: > 128 µg/mL
- MIC [3]: 64 µg/mL (≈ 47.2 µM)

Compound: CCCCCCCCCCCCCC(=O)N[C@@H](CCCNC(=N)N)C(=O)N[C@@H](Cc1c[nH]c2ccccc12)C(=O)N[C@@H](CCCNC(=N)N)C(=O)N[C@@H](Cc1c[nH]c2ccccc12)C(=O)N[C@@H](CCCNC(=N)N)C(=O)N[C@@H](Cc1c[nH]c2ccccc12)C(=O)N[C@@H](CCCCN)C(=O)O (Myristoyl-RWRWRWK-OH)
- MIC [1]: > 128 µg/mL
- MIC [2]: > 128 µg/mL
- MIC [3]: > 128 µg/mL

Compound: CCCCCCCC(=O)N[C@@H](CCCNC(=N)N)C(=O)N[C@@H](Cc1c[nH]c2ccccc12)C(=O)N[C@@H](CCCNC(=N)N)C(=O)N[C@@H](Cc1c[nH]c2ccccc12)C(=O)N[C@@H](CCCNC(=N)N)C(=O)N[C@@H](Cc1c[nH]c2ccccc12)C(=O)N[C@@H](CCCCN)C(=O)O (Octanoyl-RWRWRWK-OH)
- MIC [1]: 32 µg/mL (≈ 24.6 µM)
- MIC [2]: 16 µg/mL (≈ 12.3 µM)
- MIC [3]: 64 µg/mL (≈ 49.2 µM)

Compound: CC(C)(O/N=C(\C(=O)N[C@@H]1C(=O)N2C(C(=O)[O-])=C(C[n+]3ccccc3)CS[C@H]12)c1csc(N)n1)C(=O)O [CEFTAZIDIME]
- MIC [1]: > 256 µg/mL
- MIC [4]: > 256 µg/mL
- MIC [5]: 16 µg/mL (≈ 29.3 µM)
- MIC [6]: 2 µg/mL (≈ 3.66 µM)
- MIC [7]: 2 µg/mL (≈ 3.66 µM)
- MIC [8]: 8 µg/mL (≈ 14.6 µM)
- MIC [9]: 1 µg/mL (≈ 1.83 µM)
- MIC [10]: 8 µg/mL (≈ 14.6 µM)
- MIC [2]: > 256 µg/mL
- MIC [11]: 128 µg/mL (≈ 234 µM)
- MIC [3]: 256 µg/mL (≈ 468 µM)
- MIC [12]: 2 µg/mL (≈ 3.66 µM)
- MIC [13]: 4 µg/mL (≈ 7.32 µM)
- MIC [14]: 16 µg/mL (≈ 29.3 µM)
- MIC [15]: 256 µg/mL (≈ 468 µM)
- MIC [16]: 2 µg/mL (≈ 3.66 µM)
- MIC [17]: 32 µg/mL (≈ 58.5 µM)
- MIC [18]: 64 µg/mL (≈ 117 µM)
- MIC [19]: 1 µg/mL (≈ 1.83 µM)
- MIC [20]: 2 µg/mL (≈ 3.66 µM)

Compound: C[C@@H](O)[C@H]1C(=O)N2C(C(=O)O)=C(S[C@@H]3CN[C@H](C(=O)N(C)C)C3)[C@H](C)[C@H]12 [MEROPENEM]
- MIC [1]: 1 µg/mL (≈ 2.61 µM)
- MIC [4]: 16 µg/mL (≈ 41.7 µM)
- MIC [5]: 1 µg/mL (≈ 2.61 µM)
- MIC [6]: 2 µg/mL (≈ 5.22 µM)
- MIC [7]: 4 µg/mL (≈ 10.4 µM)
- MIC [9]: 0.5 µg/mL (≈ 1.3 µM)
- MIC [10]: 0.25 µg/mL (≈ 0.652 µM)
- MIC [2]: 16 µg/mL (≈ 41.7 µM)
- MIC [11]: 32 µg/mL (≈ 83.4 µM)
- MIC [3]: 8 µg/mL (≈ 20.9 µM)
- MIC [12]: 2 µg/mL (≈ 5.22 µM)
- MIC [13]: 0.25 µg/mL (≈ 0.652 µM)
- MIC [14]: 0.25 µg/mL (≈ 0.652 µM)
- MIC [15]: 2 µg/mL (≈ 5.22 µM)
- MIC [16]: 1 µg/mL (≈ 2.61 µM)
- MIC [17]: 2 µg/mL (≈ 5.22 µM)
- MIC [18]: 16 µg/mL (≈ 41.7 µM)
- MIC [19]: 2 µg/mL (≈ 5.22 µM)
- MIC [20]: 4 µg/mL (≈ 10.4 µM)

Compound: NC[C@H]1O[C@H](O[C@H]2[C@H](O)[C@@H](O[C@H]3O[C@H](CO)[C@@H](O)[C@H](N)[C@H]3O)[C@H](N)C[C@@H]2N)[C@H](N)C[C@@H]1O [TOBRAMYCIN]
- MIC [1]: 0.125 µg/mL (≈ 0.267 µM)
- MIC [4]: 16 µg/mL (≈ 34.2 µM)
- MIC [5]: 0.125 µg/mL (≈ 0.267 µM)
- MIC [6]: 32 µg/mL (≈ 68.4 µM)
- MIC [7]: 4 µg/mL (≈ 8.56 µM)
- MIC [8]: 8 µg/mL (≈ 17.1 µM)
- MIC [9]: 0.5 µg/mL (≈ 1.07 µM)
- MIC [10]: 16 µg/mL (≈ 34.2 µM)
- MIC [2]: 8 µg/mL (≈ 17.1 µM)
- MIC [11]: 8 µg/mL (≈ 17.1 µM)
- MIC [3]: 2 µg/mL (≈ 4.28 µM)
- Activity [21]: Active
- MIC [12]: 1 µg/mL (≈ 2.14 µM)
- MIC [13]: 4 µg/mL (≈ 8.56 µM)
- Activity [22]: Active
- MIC [14]: 4 µg/mL (≈ 8.56 µM)
- Activity [23]: Active
- MIC [15]: 8 µg/mL (≈ 17.1 µM)
- Activity [24]: Active
- MIC [16]: 1 µg/mL (≈ 2.14 µM)
- MIC [17]: 8 µg/mL (≈ 17.1 µM)
- MIC [18]: 2 µg/mL (≈ 4.28 µM)
- MIC [19]: 2 µg/mL (≈ 4.28 µM)
- MIC [20]: 16 µg/mL (≈ 34.2 µM)

Compound: COLISTIN
- MIC [1]: 2 µg/mL
- MIC [4]: 4 µg/mL
- MIC [5]: 4 µg/mL
- MIC [6]: 4 µg/mL
- MIC [7]: 4 µg/mL
- Activity [25]: Active
- MIC [8]: 2 µg/mL
- MIC [9]: 4 µg/mL
- MIC [10]: > 128 µg/mL
- MIC [2]: 2 µg/mL
- MIC [11]: 4 µg/mL
- MIC [3]: 2 µg/mL
- TIME [26]: 4 h
- MIC [12]: 4 µg/mL
- MIC [13]: 2 µg/mL
- Activity [27]: inactive
- Activity [28]: inactive
- MIC [14]: 2 µg/mL
- MIC [15]: 32 µg/mL
- MIC [16]: 8 µg/mL
- inhibition [29]: < 20%
- inhibition [30]: < 20%
- MIC [17]: 4 µg/mL
- MIC [18]: 4 µg/mL
- MIC [19]: 4 µg/mL
- MIC [20]: 8 µg/mL
